Measurements reported in patent US10398142B2, “Polycationic amphiphiles as antimicrobial agents” (priority 2013, dated 2019).
Like-named read-outs stand apart in the source and are kept apart here. Marks after values point to notes of the source that are not given here.

Tests used:
HA-MRSA (ATCC 33591) = assay: Minimum inhibitory concentration (MIC), broth microdilution; type: cell-based, Staphylococcus aureus; settings: for MIC: read-out: MIC HA-MRSA
Description: (§1) Different biological assays were performed. […] All cultures, with the exception of E. faecalis, were grown with shaking at 250 rpm.
(§2) Minimum inhibitory concentration (MIC) values against bacteria were measured using standard method. Compounds were serially diluted two-fold from an aqueous stock solution to yield twelve test concentrations. Overnight S. aureus, E. faecalis, E. coli, P. aeruginosa, CA-MRSA, and HA-MRSA cultures diluted to ca. 10^6 cfu/mL in Mueller-Hinton media and 100 μL were inoculated into each well of a U-bottom 96-well plate (BD Biosciences, BD351177) containing 100 μL of compound solution. Plates were incubated statically at 37° C. for 72 hours upon which time wells were evaluated visually for bacterial growth. The MIC was determined as the lowest concentration of compound resulting in no bacterial growth visible to the naked eye, based on the majority of three independent experiments. Positive and negative aqueous and media controls were conducted for each trial.

CA-MRSA (USA300-0114) [1] = assay: as above; type: cell-based, Staphylococcus aureus; settings: for MIC: read-out: MIC CA-MRSA
Description: as §1, §2

[2] = tested on: red blood cells (defibrinated sheep blood); assay: Hemolysis assay (Lysis20); settings: concentration at which less than 20% of red blood cells are lysed
Description: Hemolysis assays (Lysis20) were performed according to the procedure detailed in Peng, L., DeSousa, J., Su, Z., Novak, B. M., Nevzorov, A. A., Garland, E. R., and Melander, C., Inhibition of Acinetobacter baumannii biofilm formation on a methacrylate polymer containing a 2-aminoimidazole subunit, Chem. Comm. 2011, 47, 4896-4898. Defibrinated sheep blood was purchased from Hemostat Labs (DSB 100). Compounds representative of each class were serially diluted in sterile PBS from aqueous stock solutions and incubated with resuspended blood cells. The OD of the final suspensions were measured directly using plate reader. TritonX (1% by volume) served as a positive control (100% lysis marker) and sterile PBS served as a negative control (0% lysis marker).
Lysis20 indicates the concentration of compound (in μM) at which less than 20% of red blood cells are lysed.

S. aureus biofilms = assay: Crystal violet staining and confocal microscopy of pre-established biofilms; type: cell-based, Staphylococcus aureus; settings: compared to the aqueous control or norspermidine; 16 h post-treatment
Description: Left: Submerged S. aureus biofilms 16 h post-treatment with the indicated final well concentration of compound. Middle: Biofilms stained with 1% crystal violet. Right: Confocal microscopy images of biofilms 16 h post-treatment.
The inventors have determined that both cationic character and alkyl side chains are important for biofilm eradication.

[3] = tested on: Enterococcus faecalis (OG1RF); assay: Minimum inhibitory concentration (MIC), broth microdilution; type: cell-based; settings: for MIC: read-out: MIC E. faecalis
Procedure, shortened: (§3)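 Broth microdilution: two-fold serial dilutions (twelve concentrations) mixed 1:1 with overnight cultures diluted to ca. 10^6 cfu/mL in Mueller-Hinton media, incubated statically at 37° C for 72 hours. MIC is lowest concentration with no growth visible to the naked eye, majority of three independent experiments.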

[4] = tested on: Staphylococcus aureus MSSA (SH1000); assay: as above; type: cell-based
Procedure, shortened: as §3

[5] = tested on: Escherichia coli (MC4100); assay: as above; type: cell-based; settings: for MIC: read-out: MIC E. coli
Procedure, shortened: as §3

[6] = tested on: Pseudomonas aeruginosa (PAO1); assay: as above; type: cell-based
Procedure, shortened: as §3

[7] = tested on: CA-MRSA (USA300-0114) biofilms; assay: Minimum biofilm eradication concentration (MBEC), regrowth assay; type: cell-based, Staphylococcus aureus; settings: for MBEC CA-MRSA: Table 5, USA300-0114
Description: A regrowth assay was used to establish the MBEC of a compound to evaluate the antibiofilm activity. See also H. Ceri, M. Olson, D. Morck, D. Storey, R. Read, A. Buret, B. Olson, Methods Enzymol. 2001, 337, 377.
Different biological assays were performed. For all biological assays, laboratory strains of methicillin-susceptible Staphylococcus aureus MSSA (SH1000), Enterococcus faecalis (OG1RF), Escherichia coli (MC4100), Pseudomonas aeruginosa (PAO1), community-acquired methicillin-resistant Staphylococcus aureus CA-MRSA (USA300-0114), and hospital-acquired methicillin-resistant Staphylococcus aureus HA-MRSA (ATCC 33591) were grown at 37° C. overnight from freezer stocks in 10 mL of the media indicated for each assay. All cultures, with the exception of E. faecalis, were grown with shaking at 250 rpm.
Minimum biofilm eradication concentration (MBEC) was also measured. To each well of a flat-bottomed 96-well plate (Corning 3370), 8 μL of overnight bacterial culture was brought to a volume of 200 μL with fresh media (BHI for S. aureus and MRSA, Todd Hewitt (TH) for E. faecalis). Plates were incubated statically for 24 hours at 37° C. to establish biofilms. After 24 hours, the wells were carefully emptied by inverting the plate and gently shaking. A pre-mixed solution of media and aqueous compound stock solution was added to each well and plates were incubated at 37° C. 16 hours after pre-established biofilms were treated with compound, the media from each well was removed, biofilms were washed three times with 200 μL PBS to remove planktonic cells, and biofilms were incubated overnight at 37° C. in 200 μL of fresh media to allow any viable cells to continue growing. The wells were then vigorously pipetted to resuspend the biofilm cells and the OD at 595 nm was measured using a plate reader (POLARstar Omega, BMG Labtech). Biofilms reaching a final OD of less than 0.1 were considered eradicated and the lowest concentration of antibiotic corresponded to the MBEC. Four replicates were completed for each concentration of compound as well as positive and negative controls.

E. faecalis biofilms = assay: as above; type: cell-based, Enterococcus faecalis
Procedure, shortened: (§4)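 Static 24 h biofilms at 37° C. (BHI for S. aureus, Todd Hewitt for E. faecalis), then 16 h compound exposure, PBS washes and overnight regrowth in fresh media. MBEC is the lowest concentration giving final OD595 below 0.1; four replicates per concentration.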

[8] = tested on: S. aureus (MSSA, SH1000) biofilms; assay: as above; type: cell-based, Staphylococcus aureus; settings: for MBEC MSSA: Table 5, SH1000
Procedure, shortened: as §4

MSSA (SH1000) = assay: Resistance development, liquid culture serial passage; type: cell-based, Staphylococcus aureus; settings: for elevated concentration with consistent growth: MSSA (SH1000) passaged with sub-lethal doses; for resistance in serial passage, MSSA: over 24 days (>500 generations)
Description: (§5) Resistance development such as liquid culture resistance assay was performed. […] Once a day, an aliquot of bacterial culture from the highest concentration allowing bacterial growth was diluted 1:10,000 in fresh media containing a range of antibacterial compound. This process was repeated for several hundred generations.
(§6) Resistance Development Assays: Liquid culture serial passage protocols, in which bacteria are successively grown at sub-lethal concentrations of antibacterial compound, were employed.

CA-MRSA (USA300-0114) [9] = assay: as above; type: cell-based, Staphylococcus aureus; settings: for resistance in serial passage, CA-MRSA (USA300-0114): over 24 days (>500 generations)
Description: as §5, §6

[10] = Table 1, read-out: MIC S. aureus
[11] = Table 3, read-out: MIC S. aureus
[12] = Table 4, SH1000, read-out: MIC MSSA
[13] = Table 1, read-out: MIC P. aeruginosa
[14] = Table 3, read-out: MIC P. aeruginosa
[15] = Table 2, pre-established biofilm, ± values varied between 50 and 100 μM for the six trials
[16] = table for compound (12,3,2,3,12)
[17] = over a period of at least 14 days

| SMILES | MIC (HA-MRSA (ATCC 33591); Table 4, ATCC 33591) | MIC (CA-MRSA (USA300-0114) [1]; Table 4, USA300-0114) | Lysis20 ([2]; Table 4) | effect against pre-established biofilms, crystal violet staining (S. aureus biofilms) | MIC ([3]; Table 1) | MIC ([3]; Table 3) | MIC [4, 10] | MIC [4, 11] | MIC [4, 12] | MIC ([5]; Table 1) | MIC ([5]; Table 3) | MIC [6, 13] | MIC [6, 14] | MBEC CA-MRSA [7] | MBEC E. faecalis (E. faecalis biofilms; [15]) | MBEC E. faecalis (E. faecalis biofilms; Table 5) | MBEC S. aureus [8, 15] | MBEC MSSA [8] | resistance in serial passage, CA-MRSA (USA300-0114) (CA-MRSA (USA300-0114) [9]) | resistance in serial passage, MSSA (MSSA (SH1000)) | also measured |
| --- | --- | --- | --- | --- | --- | --- | --- | --- | --- | --- | --- | --- | --- | --- | --- | --- | --- | --- | --- | --- | --- |
| CCCCCCCCCCCC[N+](C)(C)CCC[N+](C)(C)CCC[N+](C)(C)CCCCCCCCCCCC.[Br-].[Br-].[I-] [12,3,1,3,12] | 1 µM | 0.5 µM | 8 µM | significant effect | 1 µM | 2 µM | 0.5 µM | 1 µM | 1 µM | 1 µM | 2 µM | 2 µM | 8 µM | 150 ± 50 µM | 50 µM | 200 µM | 100 µM | 100 µM | – | – | – |
| CCCCCCCCCCCC[N+](C)(C)Cc1ccccc1.[Cl-] [Bn,12, benzyldimethyldodecylammonium chloride, reference compound] | – | – | 63 µM | – | – | 8 µM | – | 8 µM | – | – | 32 µM | – | 63 µM | ≤200 µM | 200 µM | ≥200 µM | 200 µM | >200 µM | – | – | MIC (HA-MRSA (ATCC 33591); Staphylococcus aureus): 8 µM; MIC (CA-MRSA (USA300-0114) [1]; Staphylococcus aureus): 32 µM; potency against CA-MRSA strain possessing qacA/R (in words) (CA-MRSA (USA300-0114) [1]; compared with MSSA): decreased potency; MIC ([3]; Enterococcus faecalis): 8 µM; MIC ([4]; Staphylococcus aureus, MSSA, read-out: MIC MSSA): 8 µM; MIC ([4]; Staphylococcus aureus, MSSA, read-out: MIC S. aureus): 8 µM; MIC ([5]; Escherichia coli): 32 µM; MIC ([6]; Pseudomonas aeruginosa, PAO1, read-out: MIC P. aeruginosa): 63 µM; resistance development in MSSA (in words) (MSSA (SH1000); Bn,12: 31 days (>700 generations), 10,10: 10 days, 240 generations): development of resistance; elevated concentration with consistent growth (MSSA (SH1000); at day 11): 2 ×MIC; elevated concentration with consistent growth (MSSA (SH1000); at day 24): 4 ×MIC |
| CCCCCCCCCCCC[N+](C)(C)CCCN(C)CCC[N+](C)(C)CCCCCCCCCCCC.[Br-].[Br-] [12,3,0,3,12] | 0.5 µM | 1 µM | 4 µM | significant effect | ≤0.25 µM | 2 µM | 1 µM | 1 µM | 1 µM | ≤0.25 µM | 1 µM | 4 µM | 4 µM | 150 ± 50 µM | 50 µM | 100 µM | 100 µM | 50 µM | – | – | – |
| CCCCCCCCCCCC[N+](C)(C)CCC[N+](C)(C)CCCCCCCCCCCC.[Br-].[Br-] [12,3,12] | 2 µM | 1 µM | 8 µM | significant effect | 1 µM | – | 2 µM | – | 2 µM | 1 µM | – | 4 µM | – | 100 µM | 75 ± 25^a μM | 50 µM | 100 µM | 75 ± 25 µM | No resistance was observed | No resistance was observed | – |
| CCCCCCCCCCCC[N+](C)(C)CCC[N+](C)(CC)CCC[N+](C)(C)CCCCCCCCCCCC.[Br-].[Br-].[Br-] [12,3,2,3,12] | 1 µM | 0.5 µM | 8 µM | – | – | – | – | – | 0.5 µM | – | – | – | – | 100 µM | – | 100 µM | – | 100 µM | No resistance was observed | No resistance was observed | MIC HA-MRSA (ATCC33591) (HA-MRSA (ATCC 33591); [16]): 1 µM; MIC CA-MRSA (USA300-0114) (CA-MRSA (USA300-0114) [1]; [16]): 0.5 µM; Lysis20 [2, 16]: 8 µM; MIC E. faecalis (OG1RF) [3, 16]: 0.5 µM; MIC S. aureus (SH1000) [4, 16]: 0.5 µM; MIC E. coli (MC4100) [5, 16]: 1 µM; MIC P. aeruginosa (PA01) [6, 16]: 2 µM; MBEC USA300-0114 [7, 16]: 100 µM; MBEC E. faecalis (E. faecalis biofilms; [16]): 100 µM; MBEC S. aureus [8, 16]: 100 µM; resistance in serially passaged liquid culture, USA300-0114 (CA-MRSA (USA300-0114) [9]; [17]): No resistance was observed; resistance in serially passaged liquid culture, SH1000 (MSSA (SH1000); [17]): No resistance was observed |
